The results in this text go back to BindingDB's records for doi:10.1021/cb600303y (Rutgers University, 2006).

Structures are written as SMILES.

For test [1], the target named is T1, Gag-Pol polyprotein [600-1028,C879S]/[600-1151,C879S] (Human immunodeficiency virus 1, UniProt P03366, C879S).
T1 construct: 600-1028; 600-1151
Briefly: Assay of RT RNA-Dependent DNA Polymerase (RDDP) Activity. Particulars: pH 7.8; 37 °C. The procedure: HIV-1 RT RDDP activity was generally determined by a fixed time assay. Briefly, reaction mixtures contained p51/p66 RT, template-primer, and [3H]-TTP substrate. Aliquots of DMSO solutions containing the inhibitor were added such that the final DMSO concentration was < 2%. Reaction assays were incubated at 37 deg C for 10-20 min and then quenched with sodium pyrophosphate in 10% trichloroacetic acid (TCA). The samples were then filtered on Whatman 934-AH glass fiber filters and washed with 10% TCA and ethanol, and the radioactivity determined by liquid scintillation spectrometry.

The target of test [2] is T1, Gag-Pol polyprotein [600-1028,C879S]/[600-1151,C879S]. Description: Assay of RT RNH Activity. Particulars: pH 8; 37 °C. The procedure: (§1) To assess the effect of inhibitors, RT RNH activity was measured using a FRET-based microplate fluorescence assay. Briefly, the RNA-DNA hybrid duplex was added to individual wells of a 96-well microplate containing test compound. Reactions were initiated by the addition of HIV-1 RT and allowed to proceed at 37 deg C for 30 min. Reactions were quenched by the addition of EDTA (0.5 M).

For test [3], the target named is T2, Gag-Pol polyprotein [600-1028,Y787L]/[600-1151,Y787L] (Human immunodeficiency virus 1, UniProt P03366, Y787L).
T2 construct: 600-1028; 600-1151
Briefly: Assay of RT RNH Activity. The procedure: as §1

The target in test [4] is T3, Gag-Pol polyprotein [600-1028,Y780C]/[600-1151,Y780C] (Human immunodeficiency virus 1, UniProt P03366, Y780C).
T3 construct: 600-1028; 600-1151
Description: Assay of RT RNH Activity. The procedure: as §1

Test [5] has as its target T4, Gag-Pol polyprotein [600-1028,V705A,Y780C,C879S]/[600-1151,V705A,Y780C,C879S] (Human immunodeficiency virus 1, UniProt P03366, C879S/V705A/Y780C).
T4 construct: 600-1028; 600-1151
Briefly: Assay of RT RNH Activity. On the procedure:
as §1

Test [6] has as its target T5, Gag-Pol polyprotein [600-1028,D666N,K669R,T814F,K818Q,C879S]/[600-1151,D666N,K669R,T814F,K818Q,C879S] (Human immunodeficiency virus 1, UniProt P03366, C879S/D666N/K669R/K818Q/T814F).
T5 construct: 600-1028; 600-1151
Briefly: Assay of RT RNH Activity. On the procedure:
as §1

Test [7] deals with T6, Gag-Pol polyprotein [600-1028,L699I,K702N,C879S]/[600-1151,L699I,K702N,C879S] (Human immunodeficiency virus 1, UniProt P03366, C879S/K702N/L699I).
T6 construct: 600-1028; 600-1151
Description: Assay of RT RNH Activity. The procedure:
as §1

The term IC50 denotes the concentration needed to halve the response being measured. High values mean lower potency, low ones higher potency. Regarding `COc1ccc2ccccc2c1/C=N/NC(=O)c1ccc(C)cc1` [dihydroxy benzoyl naphthyl hydrazone (DHBNH) analogue, 2], the IC50 in test [1] was greater than 50 µM; in test [2], 15 µM.

For the compound `COc1ccc2ccccc2c1/C=N/NC(=O)c1ccc(Oc2ccccc2)cc1` [dihydroxy benzoyl naphthyl hydrazone (DHBNH) analogue, 7], the values for the IC50 in test [1] and in test [2] were 0.4 µM and 7 µM, respectively.

`COc1ccc2ccccc2c1/C=N/NC(=O)C1CCC(c2ccc(Cl)cc2)CC1` (stereo not drawn) [dihydroxy benzoyl naphthyl hydrazone (DHBNH) analogue, 8]: the IC50 stood at 1 µM in test [1] and 7.5 µM in test [2].

As to `COc1ccc2ccccc2c1/C=N/NC(=O)c1ccc(C(C)(C)C)cc1` [dihydroxy benzoyl naphthyl hydrazone (DHBNH) analogue, 5], the IC50 in test [1] was 2 µM; in test [2], 3 µM.

As to `COc1ccc(C(=O)N/N=C/c2c(OC)ccc3ccccc23)cc1` [dihydroxy benzoyl naphthyl hydrazone (DHBNH) analogue, 3], the values for the IC50 in test [1] and in test [2] were greater than 50 µM and 12 µM, respectively.

Regarding `COc1ccc2ccccc2c1/C=N/NC(=O)c1ccc(O)c(O)c1` [dihydroxy benzoyl naphthyl hydrazone (DHBNH)], the IC50 is greater than 25 µM in test [1]; 0.5 µM in test [2]; 1.2 µM in test [3]; 0.65 µM in test [4]; 0.85 µM in test [5]; 0.5 µM in test [6]. Further, the IC50 in test [7] came to 0.7 µM.

As for `COc1ccc2ccccc2c1/C=N/NC(=O)c1ccc(N(C)C)cc1` [dihydroxy benzoyl naphthyl hydrazone (DHBNH) analogue, 4], the IC50 was greater than 50 µM in test [1] and 2 µM in test [2].

As to `COc1ccc2ccccc2c1/C=N/NC(=O)c1ccccc1` [dihydroxy benzoyl naphthyl hydrazone (DHBNH) analogue, 1], the IC50 was greater than 50 µM in test [1] and 15 µM in test [2].

`COc1ccc2ccccc2c1/C=N/NC(=O)c1ccc(-c2ccccc2)cc1` [dihydroxy benzoyl naphthyl hydrazone (DHBNH) analogue, 6]: the IC50 in test [1] was 0.5 µM; in test [2], 5 µM.
